Experimental data taken from publication PMC4752739, “Functional structure and antimicrobial activity of persulcatusin, an antimicrobial peptide from the hard tick Ixodes persulcatus” (Parasites & Vectors, 2016).
Where a SMILES comes first, the peptide text is derived from it. Bridges are numbered along the chain shown (N, C = ends).

Columns and labels:
[1] = tested on: methicillin-susceptible S. aureus (MSSA) clinical strains; experiment: Growth inhibition test (MIC), MSSA; format: cell-based, Staphylococcus aureus; settings: all 9 clinical isolates of MSSA
Protocol: (§1) In the growth inhibition test, we used 9 clinical strains of methicillin-susceptible S. aureus (MSSA) and 9 clinical strains of MRSA from patients in Jichi Medical University Hospital, using these strains in past report. The bacteria were grown in Trypto Soya (TS; Nissui, Tokyo, Japan) broth for 18–19 h at 37 °C.
(§2) The optical density at 660 nm (OD660) of pre-cultured bacteria was measured using an Ubest-35 (JASCO Corporation, Tokyo, Japan). The adjustment for an OD660 of 0.5 was conducted by adding TS broth. The bacteria were diluted to a final concentration of 1–5 × 10^4 colony forming units (CFUs) /mL with TS broth, after which 50 μL of bacterial suspension and 50 μL of peptide solution were mixed together in a 96-well plate. The peptide solution was prepared by two-fold dilution in TS broth, while the IP solution was prepared to final peptide concentrations of 40, 20, 10, 5, 2.5, 1.25, 0.625, 0.313, 0.157, and 0.079 μg/mL. Each mixture of bacteria and peptide solution was incubated at 37 °C. The OD660 of the cell suspension was measured after 20–24 h incubation by using a Synergy™ HT (BioTek, Winooski, VT, USA). A control was prepared by mixing 50 μL of bacterial suspension, 40 μL of TS broth, and 10 μL of HBSS. The minimal inhibitory concentration (MIC) of the peptides was defined as the lowest concentration of peptide that reduced growth by >90 %.

MSSA = experiment: Short-time killing assay, MSSA; format: cell-based, Staphylococcus aureus; settings: 1 h at 37 °C; for Susceptibility in short-time killing assay: colony count, % of control, triplicate
Protocol: (§3) We selected 3 strains each of MSSA and MRSA used in the growth inhibition test. Unlike the growth inhibition test described above, an additional growth inhibition test was conducted using small test tubes. Each mixture of bacteria and peptide solution was incubated for 1 h at 37 °C. After the incubation, 100 μL aliquots were removed from the tubes and inoculated on TS agar plates. The plates were incubated overnight at 37 °C, after which colonies were counted. The same control was prepared as in the growth inhibition test described above. The data were then converted and expressed as a percentage (sample per control).

MRSA [2] = experiment: Short-time killing assay, MRSA; format: cell-based, Staphylococcus aureus; settings: 1 h at 37 °C
Protocol: as §3

BFCEs-K4DT = experiment: Neutral comet assay, colon epithelial cells; format: cell-based, bovine; settings: neutral conditions
Protocol: (§4) We prepared BFFs-NCC1 and BFCEs-K4DT treated or untreated with IP 50 μg/mL for 48 h as above experiment. These cells were harvested by centrifugation (800 g, 3 min) and washed with sterile Dulbecco’s Phosphate Buffered Saline (DPBS; GIBCO). To generate positive control for comet tails, a part of each cell is untreated with IP treated 25 μM KMnO4, and all samples placed for 20 min at 4 °C. The comet assay was performed under neutral conditions following the Trevigen protocol. Each cell at 1 × 10^5 cell/mL was combined with molten low-melting agarose at a ratio of 1 : 10 (vol /vol) and immediately pipetted 50 μL onto Comet slides. Slides were stored in the dark for 30 min at 4 °C before immersing in lysis solution overnight. The slides were immersed in freshly prepared neutral electrophoresis buffer (dissolved Tris base and sodium acetate in distilled water, pH 9.0) for 30 min at 4 °C. Gel electrophoresis was performed at 1 volt per cm (measured electrode to electrode) for 45 min in neutral electrophoresis buffer. The comet slides were immersed in DNA precipitation solution (7.5 M ammonium acetate containing 95 % ethanol) for 30 min at room temperature and then in 70 % ethanol for 30 min at room temperature. […] The slides were observed by fluorescence microscopy FSX100 (Olympus, Tokyo, Japan).

[3] = tested on: bovine fetal colon epithelial cells (BFCEs-K4DT); experiment: Effect on mammalian cell growth and morphology, colon epithelial cells; format: cell-based; settings: 50 μg/mL, 48 h
Protocol: (§5) In this study, we used bovine fetal fibroblasts (BFFs-NCC1) and bovine fetal colon epithelial cells (BFCEs-K4DT), which were maintained in the Laboratory of Animal Breeding and Genetics, Tohoku University Graduate School of Agricultural Science. The BFFs-NCC1 and BFCEs-K4DT were cultured in a cell culture dish and wrapped 12-well plates. The nutrient medium of each cell was Dulbecco’s modified Eagle’s medium (DMEM; Nacalai Tesque, Kyoto, Japan or Mediatech, Inc, Manassas, VA, USA) containing 10 % fetal bovine serum (Invitrogen, Carlsbad, CA, USA) and a 1 % antibiotic-antimycotic mixed stock solution (Nacalai Tesque). Then each cell was seeded into 12-well plates at 1 × 10^4 cell/well and 1 × 10^5 cell/well. After overnight incubation, the nutrient mediums were changed to DMEM with IP (0, 5, 10, 50 μg/mL), and cells were incubated for 24 h or 48 h (BFCEs-K4DT only 48 h) at 37 °C. Then, these were collected and measured using a trypan blue staining method, with an EVE™ Automatic cell counter (NanoEnTeK, Seoul, Korea). For BFCEs-K4DT, the morphology of untreated control (IP 0 μg/mL) and treated cell (IP 50 μg/mL) was observed.

[4] = tested on: bovine fetal fibroblasts (BFFs-NCC1); experiment: Effect on mammalian cell growth, fibroblasts; format: cell-based; settings: 50 μg/mL, 24 h or 48 h, trypan blue staining, automatic cell counter; triplicate
Protocol: as §5

MRSA clinical strains = experiment: Growth inhibition test (MIC), MRSA; format: cell-based, Staphylococcus aureus; settings: all 9 clinical isolates of MRSA
Protocol: as §1, §2

BFFs-NCC1 = experiment: Neutral comet assay, fibroblasts; format: cell-based, bovine; settings: neutral conditions
Protocol: as §4

MRSA [5] = settings: cited from earlier work
Description: Host cytotoxicity of AMPs is a major limitation in their application as antimicrobial drugs. […] Not only that, but DNA damage was not detected in each cell treated with IP in neutral comet assay (Fig. 6). […] Moreover, in the hemolytic assay, we observed minimal hem ... || Treating MRSA infection is challenging owing to the remarkable ability of S. aureus to develop resistance to multiple antibiotics, thus limiting the number of viable therapeutic options. New anti-MRSA drugs called DAP were developed recently, but DAP-resistant bacteria have already been reported. Therefore, there is an urgent need to develop novel antimicrobials with unique mechanisms of action to combat MRSA, one of which is AMP [4]. It has been reported that tick AMP derived from Ornithodoros moubata, with an amino acid sequence similar to that of OMBAC (91 %) (Table 2) ...

[6] = cited from earlier work
Description: Host cytotoxicity of AMPs is a major limitation in their application as antimicrobial drugs. […] Not only that, but DNA damage was not detected in each cell treated with IP in neutral comet assay (Fig. 6). […] Moreover, in the hemolytic assay, we observed minimal hem ...

[7] = positive control, 25 μM, 20 min at 4 °C

Molecule: CC[C@H](C)[C@@H]1NC(=O)[C@H](CO)NC(=O)[C@H](CCCNC(=N)N)NC(=O)[C@@H]2CSSC[C@@H](C(=O)N[C@@H](Cc3ccc(O)cc3)C(=O)N[C@@H](CO)C(=O)N[C@@H](CCCNC(=N)N)C(=O)O)NC(=O)[C@H]([C@@H](C)O)NC(=O)[C@@H]3CSSC[C@H](NC(=O)[C@H](C)NC(=O)CNC(=O)[C@H](CCC(N)=O)NC(=O)[C@H](CC(N)=O)NC(=O)[C@H](Cc4ccccc4)NC(=O)[C@@H]4CCCN4C(=O)[C@@H](NC(=O)CNC(=O)[C@H](Cc4ccccc4)NC(=O)CN)CSSC[C@H](NC(=O)[C@H](Cc4ccc(O)cc4)NC(=O)CNC(=O)CNC(=O)[C@H](CCCNC(=N)N)NC(=O)[C@H](CCCNC(=N)N)NC(=O)CNC1=O)C(=O)N[C@@H](C)C(=O)NCC(=O)N[C@@H](CC(C)C)C(=O)N[C@@H](Cc1ccccc1)C(=O)N[C@@H](CCCCN)C(=O)N[C@@H](CCC(N)=O)C(=O)N[C@@H]([C@@H](C)O)C(=O)N3)C(=O)N[C@@H](Cc1c[nH]cn1)C(=O)N[C@@H](CCCNC(=N)N)C(=O)N[C@@H](Cc1c[nH]cn1)C(=O)N2 [IP, persulcatusin] (H-GFGCPFNQGACHRHCRSIGRRGGYCAGLFKQTCTCYSR-OH; disulfide 4-25, 11-33, 15-35 (inferred); N-terminus and C-terminus assumed)
- MIC at which growth of all 9 clinical isolates was inhibited [1]: 1.25 µg/mL
- Bactericidal activity within 1 h (MSSA; MSSA): dose-dependent bactericidal activity
- Susceptibility in short-time killing assay (MSSA; strain MS-3): susceptible
- Susceptibility in short-time killing assay (MSSA; strains MS-1 and MS-2): relatively resistant
- Bactericidal activity within 1 h (MRSA [2]; MRSA): dose-dependent bactericidal activity
- Susceptibility in short-time killing assay (MRSA [2]; all MRSA strains (MR-1, 2, 3), colony count, % of control, triplicate): susceptible
- DNA damage (comet tails) (BFCEs-K4DT; 50 μg/mL for 48 h): no comet tails
- Cell morphology after treatment [3]: no morphological change
- Number of cells after treatment ([3]; trypan blue staining, automatic cell counter, triplicate): no significant differences
- Number of cells after treatment [4]: no significant differences
- MIC at which growth of all 9 clinical isolates was inhibited (MRSA clinical strains): 2.5 µg/mL
- DNA damage (comet tails) (BFFs-NCC1; 50 μg/mL for 48 h): no comet tails

Molecule: [K+].[O]=[Mn](=[O])(=[O])[O-] [KMnO4, reference compound]
- DNA damage (comet tails) (BFCEs-K4DT; [7]): some comet tails
- DNA damage (comet tails) (BFFs-NCC1; [7]): some comet tails

Molecule: GYGCPFNQYQCHSHCSGIRGYKGGYCKGTFKQTCKCY [(No use), 91 % similar to OMBAC]
- MIC against MRSA (MRSA [5]): low MIC

Molecule: melittin
- Hemolytic activity [6]: hemolytic activity
- Antimicrobial activity against MRSA (MRSA [5]): antimicrobial activity against MRSA
